“Also recorded” adds a separate entry of the source.
Assays:
[1] = tested on: T-cell acute lymphoblastic leukemia (CCRF-CEM) cells; experiment: Inhibition of CXCL12-induced chemotaxis in lymphoblastic leukemia cells; assay type: cell-based; details: Homo sapiens, CXCL12 10 nM, 2.5 h at 37 °C, read-out: concentration required to inhibit chemotaxis by 50% (EC50)
Procedure: The response of cancer cells to compounds of Formula (I) was evaluated using the chemotaxis assay as set forth below.
T-cell acute lymphoblastic leukemia (CCRF-CEM) cells in Roswell Park Memorial Institute medium (RPMI) 1640 supplemented with 10% […] were incubated with 250 μL of a test compound. The assay was performed using Millicell Hanging Cell Culture Inserts (pore size 5 μm; 24-well plate; Millipore, Bedford, Mass., USA). After 10 minutes at 37° C., 250 μL of cells pre-incubated with a test compound were plated per well in the upper chambers of the inserts at a density of 2.5×10^5 cells/well. 300 μL/well medium containing CXCL12 (10 nM) and a test compound were plated in the lower chamber of the insert. After 2.5 h at 37° C., cells in both chambers of inserts were measured by flow cytometry (Guava Technologies, Hayward, Calif., USA).

[2] = tested on: acute Kidney Injury (AKI) model; experiment: Ischemia-reperfusion acute kidney injury (AKI) model in rats; assay type: in vivo, male Sprague-Dawley rats; details: 6 mg/Kg subcutaneous 40 min before AKI, blood 24 h after induction of AKI
Procedure: The efficacy of five compounds of Formula (I) in treating Ischemia-Reperfusion injury was assessed using both an acute kidney injury model, an ischemic stroke model, and a limb ischemia model. These five compounds are Compounds 13, 35, 40, 45, and 46. In an acute Kidney Injury (AKI) model, each of the five compounds was dissolved in saline to form a solution. The solution was administered to male Sprague-Dawley rats (National Laboratory Animal Center, Taipei, Taiwan) subcutaneously at a dosage of 6 mg/Kg. 40 minutes after the subcutaneous injection, AKI was induced in the rats by clamping their bilateral renal vein and artery for one hour followed by releasing the vessel clips to allow 24-h reperfusion. Whole blood was collected at 24-h after induction of AKI. Blood urea nitrogen (BUN) and serum creatinine (Scr), two markers that increase upon kidney injury, were measured using a FUJI DRI-CHEM 3500s analyzer (Fujifilm, Tokyo, Japan). Non-AKI rats and AKI rats treated with saline were used as controls.

[3] = molecular target: T1, human CXCR4 (Homo sapiens, UniProt P61073); experiment: Inhibition of 125I-CXCL12 radioligand binding, membranes of human CXCR4-transfected HEK293 cells; details: 0.16 nM 125I-CXCL12, 60 min at 30 °C, read-out: concentration required to inhibit binding of 125I-CXCL12 to CXCR4 by 50% (IC50)
T1 construct: expressed in transfected cells; host or cells: HEK293 cells (membranes)
T1 sequence (P61073 whole entry): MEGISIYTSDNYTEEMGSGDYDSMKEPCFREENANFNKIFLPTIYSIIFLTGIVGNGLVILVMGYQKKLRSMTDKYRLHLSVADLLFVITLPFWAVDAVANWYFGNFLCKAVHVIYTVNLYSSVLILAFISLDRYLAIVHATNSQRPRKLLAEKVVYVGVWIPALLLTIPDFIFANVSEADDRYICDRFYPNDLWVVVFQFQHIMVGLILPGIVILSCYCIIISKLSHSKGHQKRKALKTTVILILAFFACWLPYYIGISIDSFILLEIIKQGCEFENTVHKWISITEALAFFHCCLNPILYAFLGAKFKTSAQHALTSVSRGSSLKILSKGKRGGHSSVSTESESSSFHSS
Procedure: Binding competition between the compounds of Formula (I) and human CXCL12 was assessed using a radioligand binding assay as described below.
Membranes (2-4 μg) prepared from human CXCR4-transfected HEK293 cells in 40 μL of assay buffer (50 mM HEPES-NaOH, pH 7.4, 100 mM NaCl, 5 mM MgCl2, 1 mM CaCl2, 0.5% bovine serum albumin) were incubated with 20 μL of radio-labeled ^125I-CXCL12 (0.16 nM) and 20 μL of a test compound in an assay plate (Costar Corning, Cambridge, Mass.). After 60 minutes at 30° C., the incubation was terminated by transferring the resulting reaction mixture to a 96-well GF/B filter plate (Millipore Corp., Billerica, Mass.) and filtered via a manifold. The plate was washed with 100 μL of ice-cold wash buffer (50 mM HEPES-NaOH, pH 7.4, 100 mM NaCl) four times. The radioactivity bound to the filter was measured by Topcount (PerkinElmer Inc., Waltham, Mass.).

[4] = tested on: Hematopoietic stem cells (CD34+) and endothelial progenitor cells (CD133+); experiment: Mobilization of stem/progenitor cells into peripheral blood in mice; assay type: in vivo, C57BL/6 male mice
[5] = tested on: HCC cell line HCA-1; experiment: Syngeneic orthotopic hepatocellular carcinoma (HCC) mouse model; assay type: in vivo, C3H mice; details: for tumor size: C3H mice with orthotopic HCA-1, 10 mg/kg/day by osmotic pump for two weeks, combined with sorafenib 40 mg/kg daily, control about 400 mm^3
Procedure: The efficacy of a compound of Formula (I), i.e., Compounds 42, in treating HCC was assessed using a syngeneic mouse model as follows.
C3H mouse-derived HCC cell line HCA-1 was used. HCA-1 cells were orthotopically implanted in C3H mice for 10 days. The mice were subsequently treated with sorafenib (a small molecule drug for treating hepatocellular carcinoma; 40 mg/kg) daily for two weeks or treated with vehicle (PBS) alone as a control. Tested compounds, e.g., AMD3100 (10 mg/kg/day) and Compound 42 (10 mg/kg/day), were each administered continuously to those mice treated with sorafenib using an Alzet osmotic pump (DURECT Corporation, Cupertino, Calif.) for two weeks.

[6] = tested on: rat ischemic myocardial infarction model; experiment: Rat ischemic myocardial infarction model; assay type: in vivo, Male SD rats; details: SD rats; 5 mg/kg single subcutaneous injection 30 minutes before LAD ligation; 24 hours; versus saline
Procedure: The efficacy of a compound of Formula (I), i.e., Compound 42, in protecting against myocardial infarction was assessed in a rat ischemic myocardial infarction model as follows.
Male SD rats (400-500 gram each) received a single subcutaneous injection of Compound 42 at a dosage of 5 mg/kg or an equal volume of saline (n=18-20 per group) 30 minutes before surgery was conducted. Left anterior descending artery (LAD) was transiently ligated using a 6-0 nylon suture for a 30-minute ischemic period in this surgery. After 24 hours, each rat was anesthetized and the LAD was ligated again. 2 mL of 5% Evan's Blue was then injected into the tail vein and allowed to perfuse for 2 minutes. The heart was immediately excised, washed with saline, froze at −80° C., and cut in semi-frozen state into 2-mm thick sections. Slices were then incubated in 1% tri-phenyltetrazolium chloride solution for 10 minutes at 37° C. and fixed in 10% formalin. Infarct size was recorded after staining.

[7] = tested on: mild traumatic brain injury (mTBI) model; experiment: Mild traumatic brain injury (mTBI) model in mice; assay type: in vivo, Adult CD1 mice; details: CD1 mice, versus vehicle

Compound	EC50 [1]	BUN level relative to that induced in saline-treated AKI rats [2]	Scr (serum creatinine) level relative to that induced in saline-treated AKI rats [2]	IC50 [3]	hematopoietic stem cell mobilization combined with G-CSF (CFU-GM numbers) [4]	tumor size [5]	protection of heart against ischemic damage (infarct size) [6]	body weight loss ([5]; C3H mice with HCA-1 tumors, 10 mg/kg/day for two weeks)	vertical activity and vertical movement time in mTBI mice ([7]; 3 mg/kg, 24 hours starting 15-minute after injury)	expression of inflammatory marker IBA1 in the lesioned cortex (qRTPCR) ([7]; 3 mg/kg, cortex collected day 5 after mTBI, 3 mg/kg)	locomotor activity after mTBI ([7]; early post-treatment given systemically after mTBI)
Cc1cc(NC2CCN(C(=O)CCNCC(=O)O)CC2)nc(NCc2coc(CCCNCCCNC3CCCCC3)n2)n1 [Compound 40]	< 0.05 µM	20%	36%	< 0.05 µM	mobilize hematopoietic stem cells synergistically						
Cc1cc(NC2CCN(C(=O)CCNCC(=O)O)CC2)nc(NCc2nnc(CCCNCCCNC3CCCCC3)s2)n1 [Compound 45]	< 0.05 µM	11%	10%	0.05 to 0.1 µM	mobilize hematopoietic stem cells synergistically						
c1cc(CN2CCCNCCNCCCNCC2)ccc1CN1CCCNCCNCCCNCC1 [AMD3100, reference compound]						about 250 mm^3					
Cc1cc(NC2CCN(C(=O)CCNCC(=O)O)CC2)nc(NCc2nc(CCCNCCCNC3CCCCC3)co2)n1 [Compound 42]	< 0.05 µM			< 0.05 µM		about 50 mm^3	protected heart against ischemic damage to a large degree	no significant body weight loss	significantly improved vertical activity	significantly reduced IBA1 expression; also recorded: significantly suppressed	significantly improved locomotor activity

Reference: patent US10882854B2, “Heterocyclic compounds and use thereof” (National Health Research Institutes, priority 2017, dated 2021)
